Data on 26 compounds can be found in patent US20240351997A1, “NOVEL PARP7 INHIBITOR AND USE THEREOF” (SHANGHAI QILU PHARMACEUTICAL RESEARCH AND DEVELOPMENT …, priority 2021, published 2024).

By IC50 is commonly meant the concentration needed to halve the response being measured.

Sequence of PARP7 (Q7Z3E1 whole entry): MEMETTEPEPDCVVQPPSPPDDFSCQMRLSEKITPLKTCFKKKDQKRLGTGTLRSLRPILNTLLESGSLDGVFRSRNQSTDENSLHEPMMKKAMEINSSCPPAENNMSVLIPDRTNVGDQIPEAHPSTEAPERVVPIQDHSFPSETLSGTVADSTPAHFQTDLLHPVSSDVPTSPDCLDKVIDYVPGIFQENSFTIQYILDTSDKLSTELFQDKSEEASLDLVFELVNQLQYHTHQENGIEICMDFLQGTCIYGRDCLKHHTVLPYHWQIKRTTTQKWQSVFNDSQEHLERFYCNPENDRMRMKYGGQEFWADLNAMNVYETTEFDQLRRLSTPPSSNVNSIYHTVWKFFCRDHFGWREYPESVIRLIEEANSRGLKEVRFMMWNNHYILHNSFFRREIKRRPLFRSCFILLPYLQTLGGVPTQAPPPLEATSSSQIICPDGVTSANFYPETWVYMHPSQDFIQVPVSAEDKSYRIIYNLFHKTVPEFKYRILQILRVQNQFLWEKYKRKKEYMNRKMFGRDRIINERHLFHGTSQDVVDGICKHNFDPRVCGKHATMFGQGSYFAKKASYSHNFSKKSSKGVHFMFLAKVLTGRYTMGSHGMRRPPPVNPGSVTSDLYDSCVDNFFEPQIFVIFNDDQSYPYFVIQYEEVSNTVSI

In the assay the target is PARP7 (Homo sapiens (Human), UniProt Q7Z3E1). In words: In vitro enzymology experiment of PARP7 (enzymatic inhibition). The assay is classed as biochemical. In short, it runs like this:
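Histone-coated plate ADP-ribosylation format: compound preincubated 10 min at room temperature with preincubated (25 °C, 10 min) enzyme mixture; incorporated biotin detected by streptavidin-HRP and QuantaRed fluorescence (Ex550/Em620).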
For `C[C@@H]1CN(c2ncc(C(F)(F)F)cn2)[C@@H](C)CN1C(=O)O[C@@H](C)Cc1c[nH]c(=O)c(C(F)(F)F)c1` [Example 155, (S)-1-(6-Oxo-5-(trifluoromethyl)-1,6-dihydropyridin-3-yl)propan-2-yl (2R,5S)-2,5-dimethyl-4-(5-(trifluoromethyl)pyrimidin-2-yl)piperazine-1-carboxylate], the IC50 amounted to 0.59 nM.
`C[C@@H]1CN(c2ncc(C(F)(F)F)cn2)C[C@H](C)N1C(=O)O[C@@H](C)Cc1c[nH]c(=O)c(C(F)(F)F)c1` [Example 156, (S)-1-(6-Oxo-5-(trifluoromethyl)-1,6-dihydropyridin-3-yl)propan-2-yl (2R,6S)-2,6-dimethyl-4-(5-(trifluoromethyl)pyrimidin-2-yl)piperazine-1-carboxylate] had a half-inhibitory concentration (IC50) of 0.98 nM.
Compound `C[C@@H]1CN(C(=O)O[C@@H](C)Cc2c[nH]c(=O)c(C(F)(F)F)c2)C[C@@H](C)N1c1ncc(C(F)(F)F)cn1` [Example 157, (S)-1-(6-Oxo-5-(trifluoromethyl)-1,6-dihydropyridin-3-yl)propan-2-yl (3R,5R)-3,5-dimethyl-4-(5-(trifluoromethyl)pyrimidin-2-yl)piperazine-1-carboxylate] yielded an IC50 of 0.9 nM.
With `C[C@@H]1CN(c2ncc(C(F)(F)F)cn2)C[C@@H](C)N1C(=O)O[C@@H](C)Cc1c[nH]c(=O)c(C(F)(F)F)c1` [Example 158, (S)-1-(6-Oxo-5-(trifluoromethyl)-1,6-dihydropyridin-3-yl)propan-2-yl (2R,6R)-2,6-dimethyl-4-(5-(trifluoromethyl)pyrimidin-2-yl)piperazine-1-carboxylate] the figure was 5 nM; with `C[C@@H](Cc1c[nH]c(=O)c(C(F)(F)F)c1)OC(=O)N1[C@@H](C)CN(c2ncc(C(F)(F)F)cn2)C[C@@H]1C` [Example 159, (S)-1-(6-Oxo-5-(trifluoromethyl)-1,6-dihydropyridin-3-yl)propan-2-yl (2S,6S)-2,6-dimethyl-4-(5-(trifluoromethyl)pyrimidin-2-yl)piperazine-1-carboxylate], 0.9 nM.
With `C[C@@H]1CN(C(=O)O[C@@H](C)Cc2c[nH]c(=O)c(C(F)(F)F)c2)[C@@H](C)CN1c1ncc(C(F)(F)F)cn1` [Example 160, (S)-1-(6-Oxo-5-(trifluoromethyl)-1,6-dihydropyridin-3-yl)propan-2-yl (2S,5R)-2,5-dimethyl-4-(5-(trifluoromethyl)pyrimidin-2-yl)piperazine-1-carboxylate] the figure was 1.3 nM; with `C[C@@H]1CN(c2ncc(C(F)(F)F)cn2)[C@H](C)CN1C(=O)O[C@@H](C)Cc1c[nH]c(=O)c(C(F)(F)F)c1` [Example 161, (S)-1-(6-Oxo-5-(trifluoromethyl)-1,6-dihydropyridin-3-yl)propan-2-yl (2R,5R)-2,5-dimethyl-4-(5-(trifluoromethyl)pyrimidin-2-yl)piperazine-1-carboxylate], 0.91 nM.
In the case of `C[C@@H]1CN(C(=O)O[C@@H](C)Cc2c[nH]c(=O)c(C(F)(F)F)c2)C[C@H](C)N1c1ncc(C(F)(F)F)cn1` [Example 162, (S)-1-(6-Oxo-5-(trifluoromethyl)-1,6-dihydropyridin-3-yl)propan-2-yl (3S,5R)-3,5-dimethyl-4-(5-(trifluoromethyl)pyrimidin-2-yl)piperazine-1-carboxylate], the IC50 stood at 1.2 nM.
In turn, `Cc1cnc(N2C[C@@H](C)N(C(=O)OCCc3c[nH]c(=O)c(C(F)(F)F)c3)[C@@H](C)C2)nc1` [Example 163, 2-(6-Oxo-5-(trifluoromethyl)-1,6-dihydropyridin-3-yl)ethyl (2R,6S)-2,6-dimethyl-4-(5-methylpyrimidin-2-yl)piperazine-1-carboxylate] gave an IC50 of 0.75 nM.
Compound `Cc1cnc(N2C[C@H](C)N(C(=O)OCCc3c[nH]c(=O)c(C(F)(F)F)c3)[C@@H](C)C2)nc1` [Example 164, 2-(6-Oxo-5-(trifluoromethyl)-1,6-dihydropyridin-3-yl)ethyl (2S,6S)-2,6-dimethyl-4-(5-methylpyrimidin-2-yl)piperazine-1-carboxylate] had a concentration for half-maximal inhibition (IC50) of 5.6 nM.
For the compound `Cc1cnc(N2[C@H](C)CN(C(=O)OCCc3c[nH]c(=O)c(C(F)(F)F)c3)C[C@@H]2C)nc1` [Example 165, 2-(6-Oxo-5-(trifluoromethyl)-1,6-dihydropyridin-3-yl)ethyl (3S,5R)-3,5-dimethyl-4-(5-methylpyrimidin-2-yl)piperazine-1-carboxylate], the half-maximal inhibitory concentration (IC50) amounted to 1 nM.
As for `Cc1cnc(N2C[C@H](C)N(C(=O)OCCc3c[nH]c(=O)c(C(F)(F)F)c3)C[C@H]2C)nc1` [Example 166, 2-(6-Oxo-5-(trifluoromethyl)-1,6-dihydropyridin-3-yl)ethyl (2S,5R)-2,5-dimethyl-4-(5-methylpyrimidin-2-yl)piperazine-1-carboxylate], the IC50 is 0.65 nM.
`Cc1cnc(N2C[C@@H](C)N(C(=O)OCCc3c[nH]c(=O)c(C(F)(F)F)c3)C[C@@H]2C)nc1` [Example 168, 2-(6-Oxo-5-(trifluoromethyl)-1,6-dihydropyridin-3-yl)ethyl (2R,5S)-2,5-dimethyl-4-(5-methylpyrimidin-2-yl)piperazine-1-carboxylate] had an IC50 of 0.9 nM.
Regarding `Cc1cnc(N2C[C@@H](C)N(C(=O)O[C@@H](C)Cc3c[nH]c(=O)c(C(F)(F)F)c3)C[C@H]2C)nc1` [Example 169, (S)-1-(6-Oxo-5-(trifluoromethyl)-1,6-dihydropyridin-3-yl)propan-2-yl (2R,5R)-2,5-dimethyl-4-(5-methylpyrimidin-2-yl)piperazine-1-carboxylate], the 50% inhibitory concentration (IC50) was 0.7 nM.
Compound `Cc1cnc(N2C[C@H](C)N(C(=O)O[C@@H](C)Cc3c[nH]c(=O)c(C(F)(F)F)c3)C[C@H]2C)nc1` [Example 170, (S)-1-(6-Oxo-5-(trifluoromethyl)-1,6-dihydropyridin-3-yl)propan-2-yl (2S,5R)-2,5-dimethyl-4-(5-methylpyrimidin-2-yl)piperazine-1-carboxylate] came in with a 50% inhibitory concentration (IC50) of 0.87 nM.
Consider `Cc1cnc(N2C[C@H](C)N(C(=O)O[C@@H](C)Cc3c[nH]c(=O)c(C(F)(F)F)c3)[C@@H](C)C2)nc1` [Example 171, (S)-1-(6-Oxo-5-(trifluoromethyl)-1,6-dihydropyridin-3-yl)propan-2-yl (2S,6S)-2,6-dimethyl-4-(5-methylpyrimidin-2-yl)piperazine-1-carboxylate], for which the midpoint of inhibition, the IC50, lay at 1.4 nM.
Compound `Cc1cnc(N2C[C@@H](C)N(C(=O)O[C@@H](C)Cc3c[nH]c(=O)c(C(F)(F)F)c3)C[C@@H]2C)nc1` [Example 172, (S)-1-(6-Oxo-5-(trifluoromethyl)-1,6-dihydropyridin-3-yl)propan-2-yl (2R,5S)-2,5-dimethyl-4-(5-methylpyrimidin-2-yl)piperazine-1-carboxylate] yielded an IC50 of 0.84 nM.
As for `C[C@@H]1CN(c2ncc(C3CC3)cn2)[C@@H](C)CN1C(=O)O[C@@H](C)Cc1c[nH]c(=O)c(C(F)(F)F)c1` [Example 173, (S)-1-(6-Oxo-5-(trifluoromethyl)-1,6-dihydropyridin-3-yl)propan-2-yl (2R,5S)-4-(5-cyclopropylpyrimidin-2-yl)-2,5-dimethylpiperazine-1-carboxylate], the IC50 was found to be 0.74 nM.
The result for `C[C@@H]1CN(c2ncc(C3CC3)cn2)C[C@H](C)N1C(=O)O[C@@H](C)Cc1c[nH]c(=O)c(C(F)(F)F)c1` [Example 174, (S)-1-(6-Oxo-5-(trifluoromethyl)-1,6-dihydropyridin-3-yl)propan-2-yl (2R,6S)-4-(5-cyclopropylpyrimidin-2-yl)-2,6-dimethylpiperazine-1-carboxylate] reads 1.3 nM; that for `C[C@@H]1CN(c2ncc(C3CC3)cn2)C[C@@H](C)N1C(=O)O[C@@H](C)Cc1c[nH]c(=O)c(C(F)(F)F)c1` [Example 175, (S)-1-(6-Oxo-5-(trifluoromethyl)-1,6-dihydropyridin-3-yl)propan-2-yl (2R,6R)-4-(5-cyclopropylpyrimidin-2-yl)-2,6-dimethylpiperazine-1-carboxylate], 0.76 nM.
The result for `C[C@@H](Cc1c[nH]c(=O)c(C(F)(F)F)c1)OC(=O)N1CCN(c2ncc(C3CC3)cn2)CC1` [Example 176, (S)-1-(6-Oxo-5-(trifluoromethyl)-1,6-dihydropyridin-3-yl)propan-2-yl 4-(5-cyclopropylpyrimidin-2-yl)piperazine-1-carboxylate] reads 1.7 nM.
In turn, `C[C@@H](Cc1c[nH]c(=O)c(C(F)(F)F)c1)OC(=O)N1[C@@H](C)CN(c2ncc(C3CC3)cn2)C[C@@H]1C` [Example 177, (S)-1-(6-Oxo-5-(trifluoromethyl)-1,6-dihydropyridin-3-yl)propan-2-yl (2S,6S)-4-(5-cyclopropylpyrimidin-2-yl)-2,6-dimethylpiperazine-1-carboxylate] came in with an IC50 of 0.78 nM.
For the compound `C[C@@H]1CN(C(=O)O[C@@H](C)Cc2c[nH]c(=O)c(C(F)(F)F)c2)[C@@H](C)CN1c1ncc(C2CC2)cn1` [Example 178, (S)-1-(6-Oxo-5-(trifluoromethyl)-1,6-dihydropyridin-3-yl)propan-2-yl (2S,5R)-4-(5-cyclopropylpyrimidin-2-yl)-2,5-dimethylpiperazine-1-carboxylate], the midpoint of inhibition, the IC50, lay at 1.4 nM.
In turn, `C[C@@H]1CN(c2ncc(C3CC3)cn2)[C@H](C)CN1C(=O)O[C@@H](C)Cc1c[nH]c(=O)c(C(F)(F)F)c1` [Example 179, (S)-1-(6-Oxo-5-(trifluoromethyl)-1,6-dihydropyridin-3-yl)propan-2-yl (2R,5R)-4-(5-cyclopropylpyrimidin-2-yl)-2,5-dimethylpiperazine-1-carboxylate] came in with an IC50 of 1 nM.
With `C[C@@H]1CN(C(=O)OCCc2c[nH]c(=O)c(C(F)(F)F)c2)C[C@H](C)N1c1ncc(C2CC2)cn1` [Example 181, 2-(6-Oxo-5-(trifluoromethyl)-1,6-dihydropyridin-3-yl)ethyl (3S,5R)-4-(5-cyclopropylpyrimidin-2-yl)-3,5-dimethylpiperazine-1-carboxylate], the half-inhibitory concentration (IC50) came out at 1.3 nM.
`C[C@H]1CN(c2ncc(C3CC3)cn2)C[C@H](C)N1C(=O)OCCc1c[nH]c(=O)c(C(F)(F)F)c1` [Example 182, 2-(6-Oxo-5-(trifluoromethyl)-1,6-dihydropyridin-3-yl)ethyl (2S,6S)-4-(5-cyclopropylpyrimidin-2-yl)-2,6-dimethylpiperazine-1-carboxylate] displayed an IC50 of 5.5 nM.
